According to US8470807B2, “Antioxidant” (Morinaga Milk Industry Co., Ltd., priority 2008, dated 2013):

How the values were obtained:
[1] = system: ApoE gene-deficient mice; assay: Inhibition of lipid peroxide formation in blood (serum TBARS/MDA) in ApoE gene-deficient mice; type: in vivo, mouse; conditions: 30 μg per day; for Amount of lipid peroxide in blood (MDA concentration): serum, 14 days after start of administration, oral once a day, high-cholesterol diet
Excerpt: The actions of inhibiting formation of a lipid peroxide of various test samples including the antioxidant of the present invention can be evaluated by using, as an index, the amount of a thiobarbituric acid (TBA) reactive substance (TBARS), for example. Specifically, it may be defined that the larger the amount of the TBARS, the larger the amount of a lipid peroxide formed.
Examples of the TEARS include malondialdehyde (MDA) which reacts with TBA under high-temperature and acidic conditions and is a natural by-product of a lipid peroxidation. An MDA-TBA adduct can be detected by measurement of an absorbance at 530 to 540 nm to perform colorimetric measurement of MDA.
Also, the action of inhibiting formation of a lipid peroxide of a test sample can be evaluated using ApoE gene-deficient mice, which are often used as model animals which develop arteriosclerosis by hypercholesterolemia (hyper-LDL-cholesterolemia) (for example, see Reference Document 1: “Saibokogaku (Cell Engineering),” Extra Issue, “Medical Experiment Manual” series, Strategy for Study of Arteriosclerosis+Hyperlipidemia, Shujunsha Co., 1st edition, 1st impression, published on Apr. 1, 1996, pp. 441-443).
Further, in the model mice, the lipid peroxide level is higher than that of normal mice, and formation of atherosclerotic lesions (plagues) in the artery is observed with time. Therefore, the action of inhibiting formation of a lipid peroxide of a test sample can be evaluated by administering the test sample to the model mice and measuring a lipid peroxide in blood of the model mice.
Those samples were separately dissolved in propylene glycol, and diluted with distilled water so as to obtain test solutions with the concentration of each compound of 30 μg/ml, and the solutions were used for a test. Note that physiological saline was used as a negative sample.
(§1) Six-week-old male ApoE gene-deficient mice (purchased from Japan SLC, Inc.) were preliminarily fed with a high-cholesterol diet (manufactured by Research Diets, Inc.) for 2 weeks and divided into groups each of 15 mice.
To mice of each group, the test solution including the test samples 1 to 6, control sample, or negative sample was separately administered orally once a day for […] using medical probes in an amount of 1 ml per 25 g of mouse body weight. At an early period after the start of administration (14 days after the start of administration), blood was collected from the tail vein of each mouse, and serum was separated. Then, the amount of TBARS was measured using OxiSelect TBARS Assay Kit (manufactured by […]). Meanwhile, as a control, blood was collected from each normal mouse in the same manner as above.

[2] = system: ApoE gene-deficient mice; assay: Number of atherosclerotic lesions (plaques) in thoracic aorta of ApoE gene-deficient mice; type: in vivo, mouse; conditions: 40 days after start, oral once a day for 39 consecutive days; for Number of plaques formed in thoracic aorta: 1 ml of 30 μg/ml per 25 g body weight, Oil red staining
Excerpt: In addition, it is generally known that a primary lesion of arteriosclerosis is caused by oxidized LDL. Therefore, it is also possible to evaluate the action of reducing a risk of arteriosclerosis through inhibiting formation of a lipid peroxide of the test sample by counting the number of atherosclerotic lesions (plaques) in the artery of each model mouse treated with the test sample.
In Example 2, a cyclolanostane compound, a lophenol compound, and a mixture of the cyclolanostane compound and the lophenol compound were each evaluated on the effect of reducing a risk of arteriosclerosis through the effect of inhibiting a lipid peroxide by counting the number of atherosclerotic lesions (plaques) in the artery using known arteriosclerosis model animals, ApoE gene-deficient mice.
Test samples 1 to 6, a control sample, and a negative sample were prepared in the same way as in Example 1 above and were each used for a test.
as §1
To mice of each group, the sample solution including the test samples, control sample, or negative sample was separately administered orally once a day for 39 consecutive days using medical probes in an amount of 1 ml per 25 g of mouse body weight. Forty days after the start of administration, the thoracic aorta part was fixed with formalin and stained with Oil red, and the number of plaques was counted.

Row | SMILES | Amount of lipid peroxide in blood (MDA concentration) [1] [µM] | Number of plaques formed in thoracic aorta [2] | effect of inhibiting formation of a lipid peroxide in blood compared with the negative sample ([1]; serum TBARS, 14 days after start of oral administration) | plaque formation compared with the negative sample [2]
1 | C=C(CCC(C)C1CCC2(C)C3CCC4C(C)(C)C(O)CCC45CC35CCC12C)C(C)C (centres unmarked) [Test sample 2, 24-methylene-9,19-cyclolanostan-3-ol] | 0.5 ± 0.19 | 5.6 ± 1.5 | – | –
2 | CC[C@H](C)C(=O)O[C@H]1C[C@H](O)C=C2C=C[C@H](C)[C@H](CC[C@@H](O)C[C@@H](O)CC(=O)[O-])[C@H]21.[Na+] [Control sample, reference compound] | 0.93 ± 0.05 | 10.6 ± 3.2 | a significant decrease in amount of a lipid peroxide in blood was not observed | no significant difference
3 | CC(C)CCCC(C)C1CCC2(C)C3CCC4C(C)(C)C(O)CCC45CC35CCC12C (centres unmarked) [Test sample 1, 9,19-Cyclolanostan-3-ol] | 0.62 ± 0.01 | 6.0 ± 0.7 | – | –
4 | CCC(CCC(C)C1CCC2C3=CCC4C(C)C(O)CCC4(C)C3CCC21C)C(C)C (centres unmarked) [Test sample 5, 4-methylstigmast-7-en-3-ol] | 0.72 ± 0.02 | 5.6 ± 2.1 | – | –
5 | CC(C)CCC[C@@H](C)[C@H]1CC[C@H]2C3=CCC4C(C)C(O)CC[C@]4(C)[C@H]3CC[C@]12C (some centres unmarked) [Test sample 3, 4-Methylcholest-7-en-3-ol] | 0.71 ± 0.08 | 6.2 ± 1.9 | – | –
6 | CC(C)C(C)CCC(C)C1CCC2C3=CCC4C(C)C(O)CCC4(C)C3CCC21C (centres unmarked) [Test sample 4, 4-methylergost-7-en-3-ol] | 0.69 ± 0.05 | 5.0 ± 1.4 | – | –
